Patent US20220241240A1, “AGENTS AND METHODS FOR INCREASING STEM CELL FUNCTION” (priority 2019, published 2022)

Experiments:
[1] = tested on: mHSCs; test: QPCR gene expression analysis on cultured mHSCs; format: cell-based, mouse; settings: mHSCs cultured with 20 μM UroA versus without
Procedure: To have analyse the molecular mechanisms by which UroA enhances HSC function, we performed gene expression analysis on mHSCs cultured in basal media with or without UroA (20 μM).
RNA was extracted from HSCs post culture using ZR RNA MicroPrep (Zymo Research) and RNA extraction was performed accordingly to the manufacturer's instructions. RNA was retrotranscribed to cDNA with 1st strand cDNA kit (TAKARA) as per the manufacturer's instructions.
For qPCR, 0.5 μl of cDNA, 5 μl of Power Syber Green mastermix (Applied Biosystem) and 500 nM of primers were used to a final volume of 10 μl for each reaction. The reactions were performed on the 7900HT system (Applied Biosystem).

[2] = tested on: human cord blood derived hematopoietic stem and progenitor cells (hHSPCs); test: Mitochondrial membrane potential (TMRM) in cultured hHSPCs (CD34+), flow cytometry; format: cell-based; settings: days 3, 5 and 7, increasing doses of UroA
Text: We then looked at the effect of UroA on human cord blood derived hematopoietic stem and progenitor cells (hHSPCs) (FIG. 1B). Cryopreserved hHSPCs (CD34+) were thawed and cultured in basal media (Stemspan+SCF+FLT3L+TPO+LDLP+Penicillin/Streptomycin) supplemented with different concentrations of UroA. Aliquots of cells were harvested at days 3, 5 and 7, followed by staining for CD34 and TMRM, and analysed by flow cytometry.
Cryopreserved CD34+ cells isolated from foetal liver/cord blood were thawed and cultured in vitro in StemSpan (Stem cell tech) media supplemented with hSCF (100 ng/ml), hFLT3L (100 ng/ml), hTPO (50 ng/ml), hLDLP (10 μg/ml) and different concentrations of UroA (dissolved in DMSO) were added; an equal amount of DMSO was added to the control well. For longer culture periods half of the media was replenished every 2nd or 3rd day.
Human HSCs already in culture were incubated at 37° C. for 1 hour with 200 nM TMRM (Invitrogen). Cells were then washed with FACS buffer, followed by staining with CD34 antibody for 1 hour at 4° C. Cells were washed with FACS buffer and analysed by flow cytometry on a BD LSR II.

[3] = tested on: cord blood derived human HSPCs; test: Colony Forming Unit (CFU) assay in methylcellulose; format: cell-based; settings: hHSPCs cultured 7 days with 50 μM UroA; colonies counted 15 days post plating; versus control
Procedure: Next, we cultured cord blood derived human HSPCs without or with UroA (50 μM) and performed two functional assays: Colony Forming Unit (CFU) assay—7 days post culture and in vivo transplantation assay in new born NSG-SGM3 pups—5 days post culture (FIG. 2B). […] Cryopreserved CD34+ cells isolated from foetal liver/cord blood were thawed and cultured in vitro in StemSpan (Stem cell tech) media supplemented with hSCF (100 ng/ml), hFLT3L (100 ng/ml), hTPO (50 ng/ml), hLDLP (10 μg/ml) and different concentrations of UroA (dissolved in DMSO) were added; an equal amount of DMSO was added to the control well. For longer culture periods half of the media was replenished every 2nd or 3rd day. CFU assays were carried out using H4434 (Stem cell tech) as per the manufacturer's instructions. 1000 cells from each well were plated in duplicate. Colonies were counted 15 days post plating using Stem Vision (Stem cell tech).

[4] = tested on: Human Cord-blood derived HSCPs; test: Limiting transplantation experiment: survival of irradiated adult NSG mice given UroA-cultured HSPCs; format: in vivo; settings: HSPCs cultured three days with 50 μM UroA, 40,000 cells per irradiated adult NSG mouse; followed eight months; especially early post-transplant phases
Procedure: A) Human cord blood derived HSPCs were cultured in basal media with or without 50 μM UroA. Three days post culture cells were counted and limiting dose (40,000 cells) was injected in each irradiated recipient adult NSG mouse and survival was monitored over several months.
In order to check if a short in vitro treatment with UroA could improve the survival of irradiated recipients post transplantation we designed a limiting transplantation experiment. Human Cord-blood derived HSCPs were cultured for three days in the absence or presence of UroA. Post culture cells were counted and 40,000 cells were injected in each recipient mouse (irradiated NSG adult mice). We followed these mice for several months to check for post transplantation survival.

[5] = tested on: cord blood derived human HSPCs; test: In vivo transplantation assay of UroA-cultured hHSPCs in new born NSG-SGM3 pups; settings: hHSPCs cultured 5 days with 50 μM UroA
Procedure: Next, we cultured cord blood derived human HSPCs without or with UroA (50 μM) and performed two functional assays: Colony Forming Unit (CFU) assay—7 days post culture and in vivo transplantation assay in new born NSG-SGM3 pups—5 days post culture (FIG. 2B). […] Cryopreserved CD34+ cells isolated from foetal liver/cord blood were thawed and cultured in vitro in StemSpan (Stem cell tech) media supplemented with hSCF (100 ng/ml), hFLT3L (100 ng/ml), hTPO (50 ng/ml), hLDLP (10 μg/ml) and different concentrations of UroA (dissolved in DMSO) were added; an equal amount of DMSO was added to the control well. For longer culture periods half of the media was replenished every 2nd or 3rd day. NSG mice were purchased from Jackson Laboratory, bred and maintained under pathogen-free conditions in-house. For transplantation, one day old NSG pups were irradiated with 1 Gy (RS-2000, RAD SOURCE) and a few hours later injected intrahepatically with in vitro expanded HSCs. Each pup was injected with a cell mass derived from an initial 50,000 CD34+ cells post in vitro culture. Mice were bled at 12 weeks to estimate human reconstitution levels (% human CD45+ cells) in the peripheral blood. Antibody combinations were used to further estimate human B cells, T cells, monocytes, neutrophils and NK cells.

[6] = tested on: bone marrow derived mouse HSCs (mHSCs); test: Mitochondrial membrane potential (TMRM) and mitochondrial mass (Mitotracker) in cultured mHSCs, flow cytometry; format: cell-based
Procedure: We first tested the effect of UroA on bone marrow derived mouse HSCs (mHSCs) (FIG. 1A). Freshly isolated mHSCs (LKS CD150+CD48-) were cultured in basal media (Stemline+SCF+FLT3L+Penicillin/Streptomycin) supplemented with different concentrations of UroA. Cells were harvested at day 3 and stained with tetramethylrhodamine methyl ester (TMRM; to measure mitochondria membrane potential) and Mitotracker (to measure mitochondrial mass), and analysed by flow cytometry.
Flow cytometry analysis was performed on freshly isolated bone marrow (BM) from C571316 mice. BM was extracted from crushed femora and tibia. Cell suspension was filtered through a 70 μm cell strainer and erythroid cells were eliminated by incubation with red blood cell lysis buffer (eBioscences). Isolation and stains were performed in ice-cold PBS 1 mM EDTA. Lineage positive cells were then removed with a magnetic lineage depletion kit (BD biosciences). Cell suspensions were then stained with specific antibodies for the stem cell compartment and sorted by FACS (BD FACS Aria 111) into 1.5 ml Eppendorf tubes.
(§1) Murine HSCs were sorted into 1.5 ml Eppendorf tubes and were cultured in Stemline II (SIGMA) supplemented with 100 ng/ml SCF (R&D) and 2 ng/ml Flt3 (R&D). Different concentrations as indicated of UroA (dissolved in DMSO) were added; an equal amount of DMSO was added to the control well.
Mouse HSCs already in culture were incubated at 37° C. for 1 hour with 200 nM tetramethylrhodamine methyl ester (TMRM; Invitrogen) and 100 nM Mitotracker green. Cells were then washed with FACS buffer and analysed by flow cytometry on a BD LSR II.

[7] = tested on: mHSCs; test: In vivo reconstitution by UroA-cultured mHSCs in lethally irradiated recipient mice; parameters: species or system mouse; settings: mHSCs cultured 3 days with 20 μM UroA, injected into lethally irradiated mice
Procedure: Having previously shown that lowering mitochondrial membrane potential enhances HSC function (Vannini, N. et al. (2016) Nat Commun 7: 13125), we asked if UroA treatment improves in vivo reconstitution potential of HSCs. To that end, we cultured freshly isolated mHSCs in basal media without or with UroA (20 μM). At the end of the culture period (3 days) cells were counted and injected into lethally irradiated recipient mice (FIG. 2A).
as §1
C57131/6 Ly5.2 mice were lethally irradiated with a total 8 Gy dose in a gamma radiator 24 h before transplant. Mice were injected with 200 donor cells post culture derived from C57131/6 Ly5.1 mice and 200,000 competitor cells derived from C57131/6 Ly5.1/5.2 mice, via tail-vein injection. Peripheral blood was collected every few weeks to determine the percentage of chimerism by FACS analysis.

[8] = tested on: human HSCs; settings: culture media supplemented with nicotinamide riboside; cited from earlier work

Structure (SMILES)	expression of ROS protection genes (Foxo1, SOD2), fold change (delta delta CT) [1]	expression of autophagy genes (ATGS, PARK2), fold change (delta delta CT) [1]	expression of glycolysis genes (HK2, Glut1), fold change (delta delta CT) [1]	TMRM signal (Median Fluorescence Intensity, MFI) [2]	proportions of cells in the TMRM low gate [2]	numbers of colonies (CFU assay) [3]	post transplantation survival of recipient mice [4]	human cell numbers in blood cell lineages ([5]; NSG-SGM3 mice, primarily lymphoid lineage (T and B cells))	human engraftment (proportion and absolute numbers) in blood ([5]; transplanted in irradiated NSG-SGM3 pups)	proportion of cells in the TMRM low gate ([6]; mHSCs (LKS CD150+CD48-), day 3 of culture, increasing doses of UroA)	mitochondrial mass (Mitotracker staining) ([6]; mHSCs, day 3, 20 μM UroA)	mitochondrial mass (Mitotracker staining) ([6]; mHSCs, day 3, all concentrations of UroA)	TMRM fluorescent intensity (Mean Fluorescence Intensity, MFI) ([6]; mHSCs, day 3 of culture, increasing doses of UroA)	reconstitution in myeloid and lymphoid lineages of the blood [7]	blood reconstitution levels of recipients ([7]; versus cells cultured without UroA)	levels of engraftment in primary and secondary recipient humanised mice [8]
O=c1oc2cc(O)ccc2c2ccc(O)cc12 [UroA, 3,8-dihydroxyurolithin]	increased expression	increased expression	increased expression	concomitant decrease of TMRM signal	increasing proportions of cells in the TMRM^low gate	significantly higher numbers of colonies	significant improvement in survival	higher human cell numbers	increased human engraftment	step-wise increase	significant reduction	decrease in the mitochondrial mass	significant lowering	This trend was reflected in both the myeloid and lymphoid lineages	higher reconstitution levels	
NC(=O)c1ccc[n+]([C@@H]2O[C@H](CO)[C@@H](O)[C@H]2O)c1 [nicotinamide riboside]																significantly higher levels of engraftment
